# Source: patent publication US20260069584A1, “METHODS OF TREATING CHRONIC MYELOID LEUKEMIA USING THE TYROSINE KINASE INHIBITOR VODOBATINIB” (Sun Pharma Advanced Research Company Ltd., priority 2022, published 2026)
# Test system: CP CML
# Assay: Part B: disease response in CP CML subjects
# Type: in vivo, human
# Description: This was a Phase I/2, open-label, single-agent, multicenter, multi-dose, dose-escalation study in subjects with Philadelphia chromosome-positive Ph+ CML (CP CML, AP CML and BP CML) and Ph+ ALL. The primary objectives of this study were to determine the maximum tolerated dose (MTD; or recommended Phase 2 dose [RP2D]) of the compound of Formula I when administered orally and to evaluate its safety.
# In this study, the dose-escalation cohort started with an accelerated titration study design (ATD) and shifted to a 3±3 design when subjects in the preceding ATD cohort experienced either grade 2 or higher adverse events (AEs) or dose-limiting toxicity (DLT) during Cycle 1 that was not clearly and incontrovertibly related to the underlying disease or concomitant medications. The DLT period consisted of 28 days (Cycle 1). Subjects experiencing DLTs were managed with dose delays and/or discontinuation and continued in the study until disease progression. Decisions to advance to a succeeding dose level occurred after the evaluation of safety and tolerability data for a given dose level.
# Accordingly, the eligible subjects were treated in 4-week cycles of once daily self-administration of the compound of Formula I. The administration was after an overnight fast, or after maintaining approximately 2 hours of fasting before and after the dosing in all cycles.
# For the cohorts, where the 3±3 design applies, 3 subjects were enrolled initially. If 2 of these subjects experienced a Grade 2 or more toxicity (that was not clearly and incontrovertibly related to the underlying disease or concomitant medications), subsequent cohorts were escalated according to smaller increments. Further, if there were no DLTs in the first 3 subjects, dose escalation to the next higher dose level was allowed to proceed. If 1 of the 3 subjects experienced a DLT, that dose level was expanded to 6 subjects (3 additional subjects were enrolled). If 2 subjects at a given dose level experienced a DLT, the MTD was considered to have been exceeded. The next lower dose level was expanded to 6 subjects, or if 6 subjects had already been enrolled and no more than 1 of the 6 subjects experienced a DLT, then this lower dose level was considered the MTD. Additional subjects were enrolled in dose escalation cohorts for further assessment of safety and efficacy of the compound of Formula 1 at doses that were tolerated (i.e., doses that have <2 DLTs in 6 enrolled subjects or <1 DLT in 3 enrolled subjects). Thus 204 mg was arrived at as MTD. A subject experiencing a DLT was allowed to continue therapy with a reduced dose. Subjects who experienced a DLT and recovered were treated at the next lower dose level until disease progression or other events requiring further dose reduction existed. For cohorts at Dose Level 2 or higher, a further dose reduction (i.e., up to 2 levels lower than their originally assigned dose) was implemented in the case of a further DLT or other non-DLT events requiring a dose reduction, if and when the event leading to dose reduction returned to Grade 1 or lower in severity. The reduced dose was re-escalated to the original or higher dose (i.e., the dose for which safety had been established in the dose escalation cohort) considering subject safety and response to the compound of Formula I. The subject was discontinued from treatment using the compound of Formula I, if dose reduction below 48 mg was required.
# The study was conducted over a period of 60 months (5 years) which was divided in 28-days cycle. In the first two cycles, the dose administration was started on day 1 and the subject's assessments were performed on day 1, day 2, day 3, day 8, day 15 and day 22. From Cycle 3 onwards, the assessments were performed every 3 months (i.e., on day 28 of Cycle 3, followed by day 28 of Cycle 6 which was further followed by day 28 of Cycle 9). […]
smiles,measurement,setting,value
"Cc1ccc(C(=O)NNC(=O)c2c(C)cccc2Cl)cc1C#Cc1cnc2ccccc2c1 [compound of Formula I, N′-(2-chloro-6-methylbenzoyl)-4-methyl-3-[2-(3-quinolyl)ethynyl]-benzohydrazide]",Best Cytogenetic Response: Complete Response,12 mg (N = 1) ESC,1(100)
same,Best Cytogenetic Response: Major Cytogenetic Response,12 mg (N = 1) ESC,1(100)
same,Best Cytogenetic Response: Minimal Response,12 mg (N = 1) ESC,0
same,Best Cytogenetic Response: Minor Response,12 mg (N = 1) ESC,0
same,Best Cytogenetic Response: No Response,12 mg (N = 1) ESC,0
same,Best Cytogenetic Response: Partial Response,12 mg (N = 1) ESC,0
same,Best Hematologic Response: Complete Response,12 mg (N = 1) ESC,1(100)
same,Best Hematologic Response: Major Hematologic Response,12 mg (N = 1) ESC,1(100)
same,Best Hematologic Response: No Evidence of Leukemia,12 mg (N = 1) ESC,0
same,Best Hematologic Response: No Response,12 mg (N = 1) ESC,0
same,Best Molecular Response: Complete Response,12 mg (N = 1) ESC,0
same,Best Molecular Response: Major Response,12 mg (N = 1) ESC,0
same,Best Cytogenetic Response: Complete Response,48 mg (N = 3) ESC,2(66.7)
same,Best Cytogenetic Response: Major Cytogenetic Response,48 mg (N = 3) ESC,2(66.7)
same,Best Cytogenetic Response: Minimal Response,48 mg (N = 3) ESC,0
same,Best Cytogenetic Response: Minor Response,48 mg (N = 3) ESC,0
same,Best Cytogenetic Response: No Response,48 mg (N = 3) ESC,0
same,Best Cytogenetic Response: Partial Response,48 mg (N = 3) ESC,0
same,Best Hematologic Response: Complete Response,48 mg (N = 3) ESC,2(66.7)
same,Best Hematologic Response: Major Hematologic Response,48 mg (N = 3) ESC,2(66.7)
same,Best Hematologic Response: No Evidence of Leukemia,48 mg (N = 3) ESC,0
same,Best Hematologic Response: No Response,48 mg (N = 3) ESC,1(33.3)
same,Best Molecular Response: Complete Response,48 mg (N = 3) ESC,2(66.7)
same,Best Molecular Response: Major Response,48 mg (N = 3) ESC,2(66.7)
same,Best Molecular Response: No Response,48 mg (N = 3) ESC,0
same,Best Cytogenetic Response: Complete Response,66 mg (N = 4) ESC,2(50.0)
same,Best Cytogenetic Response: Major Cytogenetic Response,66 mg (N = 4) ESC,2(50.0)
same,Best Cytogenetic Response: Minimal Response,66 mg (N = 4) ESC,1(25.0)
same,Best Cytogenetic Response: Minor Response,66 mg (N = 4) ESC,0
same,Best Cytogenetic Response: No Response,66 mg (N = 4) ESC,1(25.0)
same,Best Cytogenetic Response: Partial Response,66 mg (N = 4) ESC,0
same,Best Hematologic Response: Complete Response,66 mg (N = 4) ESC,3(75.0)
same,Best Hematologic Response: Major Hematologic Response,66 mg (N = 4) ESC,3(75.0)
same,Best Hematologic Response: No Evidence of Leukemia,66 mg (N = 4) ESC,0
same,Best Hematologic Response: No Response,66 mg (N = 4) ESC,1(25.0)
same,Best Molecular Response: Complete Response,66 mg (N = 4) ESC,1(25.0)
same,Best Molecular Response: Major Response,66 mg (N = 4) ESC,1(25.0)
same,Best Molecular Response: No Response,66 mg (N = 4) ESC,3(75.0)
same,Best Cytogenetic Response: Complete Response,90 mg (N = 2) ESC,0
same,Best Cytogenetic Response: Major Cytogenetic Response,90 mg (N = 2) ESC,1(50.0)
same,Best Cytogenetic Response: Minimal Response,90 mg (N = 2) ESC,0
same,Best Cytogenetic Response: Minor Response,90 mg (N = 2) ESC,0
same,Best Cytogenetic Response: No Response,90 mg (N = 2) ESC,1(50.0)
same,Best Cytogenetic Response: Partial Response,90 mg (N = 2) ESC,1(50.0)
same,Best Hematologic Response: Complete Response,90 mg (N = 2) ESC,2(100)
same,Best Hematologic Response: Major Hematologic Response,90 mg (N = 2) ESC,2(100)
same,Best Hematologic Response: No Evidence of Leukemia,90 mg (N = 2) ESC,0
same,Best Hematologic Response: No Response,90 mg (N = 2) ESC,0
same,Best Molecular Response: Complete Response,90 mg (N = 2) ESC,0
same,Best Molecular Response: Major Response,90 mg (N = 2) ESC,1(50.0)
same,Best Molecular Response: No Response,90 mg (N = 2) ESC,1(50.0)
same,Best Cytogenetic Response: Complete Response,126 mg (N = 4) ESC,2(50.0)
same,Best Cytogenetic Response: Major Cytogenetic Response,126 mg (N = 4) ESC,2(50.0)
same,Best Cytogenetic Response: Minimal Response,126 mg (N = 4) ESC,1(25.0)
same,Best Cytogenetic Response: Minor Response,126 mg (N = 4) ESC,0
same,Best Cytogenetic Response: No Response,126 mg (N = 4) ESC,1(25.0)
same,Best Cytogenetic Response: Partial Response,126 mg (N = 4) ESC,0
same,Best Hematologic Response: Complete Response,126 mg (N = 4) ESC,4(100)
same,Best Hematologic Response: Major Hematologic Response,126 mg (N = 4) ESC,4(100)
same,Best Hematologic Response: No Evidence of Leukemia,126 mg (N = 4) ESC,0
same,Best Hematologic Response: No Response,126 mg (N = 4) ESC,0
same,Best Molecular Response: Complete Response,126 mg (N = 4) ESC,1(25.0)
same,Best Molecular Response: Major Response,126 mg (N = 4) ESC,1(25.0)
same,Best Molecular Response: No Response,126 mg (N = 4) ESC,3(75.0)
same,Best Cytogenetic Response: Complete Response,174 mg (N = 7) ESC,3(42.9)
same,Best Cytogenetic Response: Major Cytogenetic Response,174 mg (N = 7) ESC,3(42.9)
same,Best Cytogenetic Response: Minimal Response,174 mg (N = 7) ESC,2(28.6)
same,Best Cytogenetic Response: Minor Response,174 mg (N = 7) ESC,1(14.3)
same,Best Cytogenetic Response: No Response,174 mg (N = 7) ESC,0
same,Best Cytogenetic Response: Partial Response,174 mg (N = 7) ESC,0
same,Best Hematologic Response: Complete Response,174 mg (N = 7) ESC,4(57.1)
same,Best Hematologic Response: Major Hematologic Response,174 mg (N = 7) ESC,4(57.1)
same,Best Hematologic Response: No Evidence of Leukemia,174 mg (N = 7) ESC,0
same,Best Hematologic Response: No Response,174 mg (N = 7) ESC,2(28.6)
same,Best Molecular Response: Complete Response,174 mg (N = 7) ESC,1(14.3)
same,Best Molecular Response: Major Response,174 mg (N = 7) ESC,3(42.9)
same,Best Molecular Response: No Response,174 mg (N = 7) ESC,3(42.9)
same,Best Cytogenetic Response: Complete Response,174 mg (N = 10) EXP,6(60.0)
same,Best Cytogenetic Response: Major Cytogenetic Response,174 mg (N = 10) EXP,7(70.0)
same,Best Cytogenetic Response: Minimal Response,174 mg (N = 10) EXP,3(30.0)
same,Best Cytogenetic Response: Minor Response,174 mg (N = 10) EXP,0
same,Best Cytogenetic Response: No Response,174 mg (N = 10) EXP,0
same,Best Cytogenetic Response: Partial Response,174 mg (N = 10) EXP,1 (10.0)
same,Best Hematologic Response: Complete Response,174 mg (N = 10) EXP,10(100)
same,Best Hematologic Response: Major Hematologic Response,174 mg (N = 10) EXP,10(100)
same,Best Hematologic Response: No Evidence of Leukemia,174 mg (N = 10) EXP,0
same,Best Hematologic Response: No Response,174 mg (N = 10) EXP,0
same,Best Molecular Response: Complete Response,174 mg (N = 10) EXP,1(10.0)
same,Best Molecular Response: Major Response,174 mg (N = 10) EXP,1(10.0)
same,Best Molecular Response: No Response,174 mg (N = 10) EXP,9(90.0)
same,Best Cytogenetic Response: Complete Response,204 mg (N = 6) ESC,4(66.7)
same,Best Cytogenetic Response: Major Cytogenetic Response,204 mg (N = 6) ESC,6(100)
same,Best Cytogenetic Response: Minimal Response,204 mg (N = 6) ESC,0
same,Best Cytogenetic Response: Minor Response,204 mg (N = 6) ESC,0
same,Best Cytogenetic Response: No Response,204 mg (N = 6) ESC,0
same,Best Cytogenetic Response: Partial Response,204 mg (N = 6) ESC,2(33.3)
same,Best Hematologic Response: Complete Response,204 mg (N = 6) ESC,6(100)
same,Best Hematologic Response: Major Hematologic Response,204 mg (N = 6) ESC,6(100)
same,Best Hematologic Response: No Evidence of Leukemia,204 mg (N = 6) ESC,0
